{"source": "patent US6693116B2", "about": "“Adenosine receptor ligands” (Hoffmann-La Roche Inc., priority 2001, dated 2004)", "data": [{"target": "T1, human adenosine A2A receptor (Homo sapiens, UniProt P29274)", "T1 construct": "expressed in transfected cells; host or cells: CHO cells, Semliki Forest virus expression system; membrane preparation", "T1 sequence (P29274 whole entry)": "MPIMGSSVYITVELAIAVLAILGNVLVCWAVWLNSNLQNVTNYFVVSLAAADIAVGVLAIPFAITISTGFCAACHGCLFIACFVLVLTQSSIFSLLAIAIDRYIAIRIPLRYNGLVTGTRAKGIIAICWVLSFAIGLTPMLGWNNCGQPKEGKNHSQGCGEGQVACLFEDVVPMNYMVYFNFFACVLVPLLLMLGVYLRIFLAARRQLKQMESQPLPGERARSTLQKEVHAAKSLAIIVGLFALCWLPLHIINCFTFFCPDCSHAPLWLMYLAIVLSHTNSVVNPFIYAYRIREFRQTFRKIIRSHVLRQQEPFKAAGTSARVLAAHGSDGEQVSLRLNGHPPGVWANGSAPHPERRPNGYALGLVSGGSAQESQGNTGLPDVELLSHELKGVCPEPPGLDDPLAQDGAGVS", "assay": "[3H]-SCH-58261 binding assay, human adenosine A2A receptor", "details": "membranes of CHO cells recombinantly expressing the human A2A receptor, Ki from IC50 by Cheng-Prussoff equation, read-out: HA2A KI", "description": "Human Adenosine A2A Receptor\nThe human adenosine A2A receptor was recombinantly expressed in Chinese hamster ovary (CHO) cells using the semliki forest virus expression system. Cells were harvested, washed twice by centrifugation, homogenized and again washed by centrifugation. The final washed membrane pellet was suspended in a Tris (50 mM) buffer containing 120 mM NaCl, 5 mM KCl, 2 mM CaCl2 and 10 mM MgCl2 (pH 7.4) (buffer A). The [^3H]-SCH-58261 (Dionisotti et al., 1997, Br. J. Pharmacol. 121, 353) binding assay was carried out in 96-well plates in the presence of 2.5 μg of membrane protein, 0.5 mg of Ysi-poly-l-lysine SPA beads and 0.1 U adenosine deaminase in a final volume of 200 μl of buffer A. Non-specific binding was defined using xanthine amine congener (XAC; 2 μM). Compounds were tested at 10 concentrations from 10 μM to 0.3 nM. All assays were conducted in duplicate and repeated at least twice. Assay plates were incubated for 1 hour at room temperature before centrifugation and then bound ligand was determined using a Packard Topcount scintillation counter. IC50 values were calculated using a non-linear curve fitting program and Ki values calculated using the Cheng-Prussoff equation.\nIn accordance with the invention, the compounds of formula I have a high affinity toward the A2A receptor. The table below (after Example 10) describes specific values of prepared compounds.", "units": {"Ki": "nM"}, "values": [{"smiles": "COc1ccc(-c2ccccc2)c2nc(NC(=O)c3ccc(C(F)(F)F)cc3)nn12", "note": "[Example 11, N-(5-Methoxy-8-phenyl-[1,2,4]triazolo[1,5-a]pyridin-2-yl)-4-trifluoromethyl-benzamide]", "Ki": 884}, {"smiles": "COc1ccc(-c2ccc(F)cc2)c2nc(NC(=O)c3ccc(Br)cc3)nn12", "note": "[Example 12, 4-Bromo-N-[8-(4-fluoro-phenyl)-5-methoxy-[1,2,4]triazolo[1,5-a]pyridin-2-yl]-benzamide]", "Ki": 776}, {"smiles": "COc1cccc(-c2ccc(OC)n3nc(NC(=O)c4ccc(Br)cc4)nc23)c1", "note": "[Example 13, 4-Bromo-N-[5-methoxy-8-(3-methoxy-phenyl)-[1,2,4]triazolo[1,5-a]pyridin-2-yl]-benzamide]", "Ki": 480}, {"smiles": "COc1ccc(Br)c(C(=O)Nc2nc3c(-c4cccc(F)c4)ccc(OC)n3n2)c1", "note": "[Example 14, 2-Bromo-N-[8-(3-fluoro-phenyl)-5-methoxy-[1,2,4]triazolo[1,5-a]pyridin-2-yl]-5-methoxy-benzamide]", "Ki": 908}, {"smiles": "COc1ccc(-c2cccc(F)c2)c2nc(NC(=O)c3ccc(Br)o3)nn12", "note": "[Example 15, 5-Bromo-furan-2-carboxylic acid [8-(3-fluoro-phenyl)-5-methoxy-[1,2,4]triazolo[1,5-a]pyridin-2-yl]-amide]", "Ki": 572}, {"smiles": "COc1cccc(-c2ccc(OC)n3nc(NC(=O)c4ccc(Br)o4)nc23)c1", "note": "[Example 16, 5-Bromo-furan-2-carboxylic acid [5-methoxy-8-(3-methoxy-phenyl)-[1,2,4]triazolo[1,5-a]pyridin-2-yl]-amide]", "Ki": 560}, {"smiles": "COc1ccc(-c2ccccc2)c2nc(NC(=O)c3cccc(C)c3)nn12", "note": "[Example 17, N-(5-Methoxy-8-phenyl-[1,2,4]triazolo[1,5-a]pyridin-2-yl)-3-methyl-benzamide]", "Ki": 984}, {"smiles": "COc1ccc(-c2ccc(F)cc2)c2nc(NC(=O)c3ccc(F)cc3)nn12", "note": "[Example 18, 4-Fluoro-N-[8-(4-fluoro-phenyl)-5-methoxy-[1,2,4]triazolo[1,5-a]pyridin-2-yl]-benzamide]", "Ki": 664}, {"smiles": "COc1cccc(-c2ccc(OC)n3nc(NC(=O)c4ccc(F)cc4)nc23)c1", "note": "[Example 19, 4-Fluoro-N-[5-methoxy-8-(3-methoxy-phenyl)-[1,2,4]triazolo[1,5-a]pyridin-2-yl]-benzamide]", "Ki": 748}, {"smiles": "COc1ccc(-c2ccc(F)cc2)c2nc(NC(=O)c3ccccc3F)nn12", "note": "[Example 20, 2-Fluoro-N-[8-(4-fluoro-phenyl)-5-methoxy-[1,2,4]triazolo[1,5-a]pyridin-2-yl]-benzamide]", "Ki": 784}, {"smiles": "COc1cccc(-c2ccc(OC)n3nc(NC(=O)c4cccs4)nc23)c1", "note": "[Example 21, Thiophene-2-carboxylic acid[5-methoxy-8-(3-methoxy-phenyl)-[1,2,4]thiazolo[1,5-a]pyridin-2-yl]-amide]", "Ki": 516}]}]}
